# Tested on: sentinel lymph node (SLN)
# Experiment: Sentinel lymph node detection after submucosal injection in stomach and small intestine of laparotomized pig, observed by color change
# Type: in vivo
# Conditions: 0.5 mL submucosal
# Procedure: A pig was laparotomized under general anesthesia and the mixture of the sodium hyaluronate and the patent blue prepared in (1) above and patent blue alone as a control were each injected at two locations which were in the tissues (submucosal) of the stomach and small intestine at 0.5 mL each, and migration from the lymphatic vessels to the lymph nodes was monitored for 3 hours after injection based on the changes in color under laparotomy. […] In addition, the colored lymph nodes were investigated histologically after 3 hours and after 24 hours. A pig was laparotomized under general anesthesia and the mixture of the sodium hyaluronate and the ferumoxides injection solution prepared in (1) above and the ferumoxides injection solution alone as a control were each injected at two locations which were in the tissues (submucosal) of the stomach and small intestine at 0.5 mL each, and migration from the lymphatic vessels to the lymph nodes was monitored for 3 hours after injection based on the changes in color under laparotomy. […] In addition, the colored lymph nodes were investigated histologically after 3 hours and after 24 hours. […]
smiles,measurement,setting,value
CCN(CC)c1ccc(C(=C2C=CC(=[N+](CC)CC)C=C2)c2cc(O)c(S(=O)(=O)O)cc2S(=O)(=O)O)cc1 [patent blue],time to almost complete disappearance from the associated lymphatic system,after injection,≤ 2 h
same,time until staining of the lymphatic system / SLN after injection,stomach and small intestine wall,several minutes

# From patent US20070232904A1, “Application of Hyaluronic Acid to Sentinel Lymph Node Identification” (OAKLEY, INC., priority 2004, published 2007)
